According to patent US5932555A (priority 1997, dated 1999):
In brackets after ≈: the same amount, converted by molar mass. Where two headings read alike, the source gives them in different places.

How the values were obtained:
[1] = tested on: rejection of the transplant; conditions: as an immunosuppressive agent, prior art; cited from earlier work
[2] = prior art, depending on case; cited from earlier work
P388 [3] = assay: Cytotoxicity test on cultured tumor cell line P388 (MTT, 72 h); assay type: cell-based; conditions: Mus musculus, P388, 72 h, read-out: IC50 (growth inhibition)
Description: (§1) Cultured tumor cell lines P388 and P388/ADR were suspended in RPMI1640 medium containing 10% heat inactivated fetal calf serum (FCS) and 20 μM 2-mercaptoethanol whereby a cell suspension (5×10^4 cells/ml) was prepared.
72 hours thereafter, cell growth was measured by a calorimetric assay method using 3-(4,5-dimethyl-2-thiazolyl)-2,5-diphenyl-2H-tetrazolium bromide (MTT) as follows: 20 μl of 2 mg/ml MTT solution was added to each well and the cells were incubated for 4 hours at 37° C. Thereafter, 50 μl of 50% dimethylformamide solution containing 20% sodium dodecyl sulfate was added to each well and allowed to stand, so that the formed violet formazan crystal was dissolved, and its absorbance at 570 nm was measured in a microplate absorbance photometer (Immunoreader) and used as an indicator of the growth.
(§2) Degree of inhibition=[1-(absorbance in presence of sample)/(absorbance in
(§3) absence of sample)]×100 (1)

[4] = tested on: adriamycin-resistant P388; assay: Cytotoxicity test on adriamycin-resistant P388 (P388/ADR) (MTT, 72 h); assay type: cell-based; conditions: Mus musculus, P388, 72 h, read-out: IC50 (growth inhibition)
Description: as §1
A sample examined was dissolved in methanol, then diluted with RPMI 1640 medium and subjected to serial 2-fold dilution starting at the concentration of 0.1 mg/ml. 180 μl of the cell suspension and 20 μl of the sample solution were added into a 96-well micro-titer plate and incubated at 37° C. in wet 5% CO2 gas/95% air. 72 hours thereafter, cell growth was measured by a calorimetric assay method using 3-(4,5-dimethyl-2-thiazolyl)-2,5-diphenyl-2H-tetrazolium bromide (MTT) as follows: 20 μl of 2 mg/ml MTT solution was added to each well and the cells were incubated for 4 hours at 37° C. Thereafter, 50 μl of 50% dimethylformamide solution containing 20% sodium dodecyl sulfate was added to each well and allowed to stand, so that the formed violet formazan crystal was dissolved, and its absorbance at 570 nm was measured in a microplate absorbance photometer (Immunoreader) and used as an indicator of the growth. The result was expressed in terms of the concentration of a sample at which growth was inhibited by 50% (IC50), which was determined from the relationship between sample concentrations and degrees of inhibition calculated using the following equation (1):
as §2, §3

P388 [5] = assay: Mouse in vivo antitumor test, P388 transplanted
Description: (§4) 2×10^5 cells of P388 or P388/ADR were inoculated intraperitoneally into each of CDF1 mice (male, each weighing 20 g, 10 animals/group), and from the next day, the test solution was administered at 10, 5, and 1 mg/kg body weight/day respectively by intraperitoneal injection of 200 μl sample at each concentration once a day for 10 successive days. The numbers with time of mice which survived after administration was counted and the average survival days and T/C (survival days of treated mice/survival days of control mice) were calculated. The average body weights after 10 days were also measured.

P388/ADR = assay: Mouse in vivo antitumor test, P388/ADR transplanted
Description: as §4

[6] = Repeated administration toxicity test (intraperitoneal); assay type: in vivo, mouse (CDF1); conditions: mouse, in vivo, ip, read-out: Fatality rate
Description: (§5) As the comparative control, test solutions of adriamycin were prepared in the same manner. […] The number with time of survived animals after administration and the average body weights on Days 0, 5, and 10 were determined.

CDF1 mice = assay: as above; assay type: in vivo, mouse (CDF1); conditions: for Body weight, Day 0: Day 0 (baseline); for Number of survived animals, Day 4 / Number of survived animals, Day 5 / Number of survived animals, Day 6 / Number of survived animals, Day 7 / Number of survived animals, Day 8 / Number of survived animals, Day 10: of 10
Description: as §5

[7] = P388, 1 mg/kg/day i.p. × 10 days
[8] = P388, 5 mg/kg/day i.p. × 10 days
[9] = P388, 10 mg/kg/day i.p. × 10 days
[10] = P388/ADR, 1 mg/kg/day i.p. × 10 days
[11] = P388/ADR, 5 mg/kg/day i.p. × 10 days
[12] = P388/ADR, 10 mg/kg/day i.p. × 10 days

Structure (SMILES): C=CC[C@@H]1/C=C(\C)C[C@H](C)C[C@H](OC)[C@H]2O[C@@](O)(C(=O)C(=O)N3CCCC[C@H]3C(=O)O[C@H](/C(C)=C/[C@@H]3CC[C@@H](O)[C@H](OC)C3)[C@H](C)[C@@H](O)CC1=O)[C@H](C)C[C@@H]2OC [tacrorims (FK506)]
- immunosuppressive results [1]: preferable results
- side effects [2]: obstacles to the pancreas and kidney

Structure (SMILES): COc1cccc2c1C(=O)c1c(O)c3c(c(O)c1C2=O)C[C@@](O)(C(=O)CO)C[C@@H]3O[C@H]1C[C@H](N)[C@H](O)[C@H](C)O1 [Adriamycin]
- IC50 (P388 [3]): 0.027 µg/mL (≈ 0.0497 µM)
- IC50 [4]: 0.53 µg/mL (≈ 0.975 µM)
- T/C (P388 [5]; [7]): 120%
- average survival days (P388 [5]; [7]): 12.4 days
- T/C (P388 [5]; [8]): 81%
- average survival days (P388 [5]; [8]): 8.4 days
- T/C (P388 [5]; [9]): 76%
- average survival days (P388 [5]; [9]): 7.8 days
- therapeutic effect (improvement in survival rate) (P388 [5]; P388-transplanted mice, adriamycin 1 mg/kg/day vs 0406TP-1): same degree of therapeutic effect
- therapeutic effect at high dosage (P388 [5]; more than 5 mg/kg body weight/day, due to its toxicity): did not show therapeutic effect
- T/C (P388/ADR; [10]): 96%
- average body weight after 10 days (P388/ADR; [10]): 23.5 g
- average survival days (P388/ADR; [10]): 10.7 days
- T/C (P388/ADR; [11]): 63%
- average survival days (P388/ADR; [11]): 7.0 days
- T/C (P388/ADR; [12]): 68%
- average survival days (P388/ADR; [12]): 7.5 days
- therapeutic effect (P388/ADR; P388/ADR-transplanted mice): did not show therapeutic effect
- mortality ([6]; 1 mg/kg/day i.p. × 10 days): 0%
- mortality ([6]; 5 mg/kg/day i.p. × 10 days): 70%
- mortality ([6]; 10 mg/kg/day i.p. × 10 days): 100%
- Body weight, Day 0 (CDF1 mice; 1 mg/kg/day i.p. group): 21.9 g
- Number of survived animals, Day 4 (CDF1 mice; 1 mg/kg/day i.p. × 10 days): 10
- Number of survived animals, Day 5 (CDF1 mice; 1 mg/kg/day i.p. × 10 days): 10
- Number of survived animals, Day 6 (CDF1 mice; 1 mg/kg/day i.p. × 10 days): 10
- Number of survived animals, Day 7 (CDF1 mice; 1 mg/kg/day i.p. × 10 days): 10
- Number of survived animals, Day 8 (CDF1 mice; 1 mg/kg/day i.p. × 10 days): 10
- Number of survived animals, Day 10 (CDF1 mice; 1 mg/kg/day i.p. × 10 days): 10
- Body weight, Day 5 (CDF1 mice; 1 mg/kg/day i.p.): 23.5 g
- Body weight, Day 10 (CDF1 mice; 1 mg/kg/day i.p.): 24.5 g
- Body weight, Day 0 (CDF1 mice; 5 mg/kg/day i.p. group): 21.6 g
- Number of survived animals, Day 4 (CDF1 mice; 5 mg/kg/day i.p. × 10 days): 10
- Number of survived animals, Day 5 (CDF1 mice; 5 mg/kg/day i.p. × 10 days): 9
- Number of survived animals, Day 6 (CDF1 mice; 5 mg/kg/day i.p. × 10 days): 9
- Number of survived animals, Day 7 (CDF1 mice; 5 mg/kg/day i.p. × 10 days): 8
- Number of survived animals, Day 8 (CDF1 mice; 5 mg/kg/day i.p. × 10 days): 3
- Number of survived animals, Day 10 (CDF1 mice; 5 mg/kg/day i.p. × 10 days): 3
- Body weight, Day 5 (CDF1 mice; 5 mg/kg/day i.p.): 21.0 g
- Body weight, Day 10 (CDF1 mice; 5 mg/kg/day i.p.): 15.8 g
- Body weight, Day 0 (CDF1 mice; 10 mg/kg/day i.p. group): 21.8 g
- Number of survived animals, Day 4 (CDF1 mice; 10 mg/kg/day i.p. × 10 days): 10
- Number of survived animals, Day 5 (CDF1 mice; 10 mg/kg/day i.p. × 10 days): 9
- Number of survived animals, Day 6 (CDF1 mice; 10 mg/kg/day i.p. × 10 days): 8
- Number of survived animals, Day 7 (CDF1 mice; 10 mg/kg/day i.p. × 10 days): 3
- Number of survived animals, Day 8 (CDF1 mice; 10 mg/kg/day i.p. × 10 days): 0
- Number of survived animals, Day 10 (CDF1 mice; 10 mg/kg/day i.p. × 10 days): 0
- Body weight, Day 5 (CDF1 mice; 10 mg/kg/day i.p.): 17.7 g
- survival in repeated administration (CDF1 mice; i.p. 10 days, in words): some animals in the group given adriamycin died
- growth / body weight in repeated administration (CDF1 mice; i.p. 10 days, in words, vs control): growth was inferior to the control
